According to patent US20100168054A1, “Functionalized Beta 1,6 Glucosamine Disaccharides and Process for Their Preparation” (OM PHARMA, priority 2006, published 2010):
pIC50: −log10 of the molar value. Read-outs that look alike come from different tables or passages of the source.

Columns and labels:
rat mast cells = assay: Histamine secretion (compound 48/80-stimulated); format: cell-based; conditions: compound 48/80 0.1 μg/ml, 2 min, 37° C.
Text: Using an in vitro rat model of mast cell degranulation (proposed by the CRO CEREP, catalog number 2006: 771-c), we aimed to investigate whether the synthetic molecules OM-174-DP (compound 1b) OM-174-MP-PD (19), OM-174-MP-EP (33), OM-174-MP-CM (35c) and OM-174-MP-PR (17) would inhibit histamine secretion by compound 48/80-stimulated mastocytes. The protocol used is briefly summarized below:
The results are expressed as a percent of control specific activity ((measured specific activity/control specific activity)×100) obtained in the presence of the test compounds. The IC50 values (concentration causing a half-maximal inhibition of control specific activity) were determined by non-linear regression analysis of the inhibition curves generated with mean replicate values using Hill equation curve fitting (Y=D+[(A−D)/(1+(C/C50)nH)], where Y=specific activity, D=minimum specific activity, A=maximum specific activity, C=compound concentration, C50=IC50, and nH=slope factor). This analysis was performed using a software developed at Cerep (Hill software) and validated by comparison with data generated by the commercial software SigmaPlot® 4.0 for Windows® (© 1997 by SPSS Inc.).
In each experiment, the reference compound was tested concurrently with the test compounds in order to assess the assay suitability. It was tested at several concentrations (for IC50 value determination), and the data were compared with historical values determined at CEREP. The assay was rendered valid if the suitability criteria were met, in accordance with the corresponding Standard Operating Procedure.

[1] = system: human peripheral blood mononuclear cells (PBMC); assay: TNF-α secretion by human PBMC (ELISA); format: cell-based; conditions: for TNF-α: 24 h; for TNF-α induction (in words): 0.2, 2, 20 μg/ml
Procedure: (§1) Peripheral blood from healthy donors (Centre de transfusion, Hôpital Universitaire, Geneva) was centrifuged to get the buffy coat. The buffy coat was mixed with Hanks' balanced saline solution (HBSS, Sigma, Buchs, Switzerland), layered over Ficoll Paque Plus (Amersham Pharmacia) to 1.077 g/mL and centrifuged (2800 rpm, 20° C., 25 min). Cells harvested from the interphase were washed twice in HBSS at 800 rpm for 15 min at room temperature and the pelleted cells were resuspended in HBSS. The cell counts were performed using a Neubauer cell. All cell cultures were performed in RPMI-1640 medium supplemented with penicillin (100 U/mL), streptomycin (100 μg/mL), L-glutamine (2 mmol/L) and 10% fetal calf serum (FCS), all obtained from Sigma. For in vitro stimulation, the cells were cultured at a concentration of 1×10^6 viable cells/well.
(§2) PBMC were incubated at 37° C. and under 5% CO2 atmosphere with the controls (see below) and with the products of the invention at 1, 5, and 20 μg/mL for IL-6, and at 0.2, 2, and 20 μg/mL for TNF-α secretion. Medium: RPMI alone.
(§3) The surpernatants of the cultures were harvested after 24 h and the concentration of IL-6 and TNF-α were measured by an enzyme-linked immunosorbent assay (ELISA) (Human IL-6 and TNF-α ELISA Set, BD OptEIA, San Diego, USA), according to the manufacturer instructions. The detection limits were 10 and 8 pg/mL respectively.

[2] = system: human peripheral blood mononuclear cells (PBMC); assay: IL-6 secretion by human PBMC (ELISA); format: cell-based; conditions: for IL6: 24 h
Procedure: as §1, §2, §3
PBMC are incubated at 37° C. and under 5% CO2 atmosphere with the products of the invention.
The supernatants of the cultures are harvested after 24 h and the concentration of IL-6 was measured by an enzyme-linked immunosorbent assay (ELISA) (Human IL-6 ELISA Set, BD OptEIA, San Diego, USA), according to the manufacturer instructions. The detection limit was 10 pg/mL.

[3] = system: THP1-Blue cells (express naturally both TLR2 and TLR4); assay: THP1-Blue NF-κB/AP-1-inducible SEAP reporter; format: cell-based, human; conditions: 48 h
Procedure: A first series of experiment was performed on THP-1 cells, which express naturally both TLR2 and TLR4. THP-1 cells are human peripheral blood monocytic cells. Monocytes play a key role in innate immunity and express most TLRs at various levels. As for the primary cells, THP-1 cells activate NF-κB and other transcription factors in response to TLR ligands
To facilitate analysis of TLR response in monocytes, InvivoGen (Toulouse, France) provides THP-1 clones stably transfected with an NF-κB-inducible reporter system, called THP1-Blue™. THP-1 Blue cells were stably transfected with a reporter plasmid expressing a secreted embryonic alkaline phosphatase (SEAP) gene under the control of a promoter inducible by several transcription factors such as NF-κB and AP-1. Upon TLR stimulation, THP1-Blue™ cells activate transcription factors and subsequently the secretion of SEAP which is easily detectable when using QUANTI-Blue\u2122a medium that turns purple/blue in the presence of SEAP.
The cells were stimulated with the controls and compounds of the invention according to manufacturer's instructions. Results: Increased OD at 625 Nm after 48 Hours: The results for the controls (negative=LPS K12CD25 ultrapure, a TLR4 agonist; and PAM3CSK4=positive, a TLR2 agonist) are provided in the table below. The results (expressed as OD of arbitrary units) show the mean values (from duplicate measures) of Optical density read at 625 nm, 48 h after stimulation at 37° C. with the controls (up to 1000 ng/ml): […]

TLR4 = target: T1, TLR4 (Homo sapiens, UniProt O00206+Q9Y6Y9); assay: HEK-MD2-TLR4-CD14 IL-8 secretion; format: cell-based; conditions: 24 h
T1 construct: expressed in transfected cells; host or cells: HEK293
T1 sequence (O00206 24-839): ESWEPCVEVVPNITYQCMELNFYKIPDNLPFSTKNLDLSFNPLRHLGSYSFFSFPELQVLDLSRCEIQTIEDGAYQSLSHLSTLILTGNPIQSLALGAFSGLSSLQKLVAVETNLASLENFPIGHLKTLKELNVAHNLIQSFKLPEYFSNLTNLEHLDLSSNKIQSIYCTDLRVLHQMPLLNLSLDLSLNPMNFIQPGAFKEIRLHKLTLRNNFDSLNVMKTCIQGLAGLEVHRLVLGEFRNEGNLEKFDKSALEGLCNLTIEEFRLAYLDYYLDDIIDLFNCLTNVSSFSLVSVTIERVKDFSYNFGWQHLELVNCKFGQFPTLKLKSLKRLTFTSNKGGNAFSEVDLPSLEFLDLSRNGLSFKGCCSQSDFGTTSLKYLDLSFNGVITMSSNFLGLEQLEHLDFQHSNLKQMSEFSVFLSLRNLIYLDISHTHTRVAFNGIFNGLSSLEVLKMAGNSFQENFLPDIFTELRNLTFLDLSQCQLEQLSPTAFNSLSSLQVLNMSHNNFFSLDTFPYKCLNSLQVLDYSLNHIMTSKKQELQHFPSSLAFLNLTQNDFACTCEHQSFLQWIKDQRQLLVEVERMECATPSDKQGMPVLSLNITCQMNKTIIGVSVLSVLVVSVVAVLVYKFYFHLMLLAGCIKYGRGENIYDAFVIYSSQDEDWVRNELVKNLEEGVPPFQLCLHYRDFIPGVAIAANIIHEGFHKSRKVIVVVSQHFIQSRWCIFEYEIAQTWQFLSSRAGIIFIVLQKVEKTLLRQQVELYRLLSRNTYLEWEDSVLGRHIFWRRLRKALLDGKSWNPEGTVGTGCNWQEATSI
T1 sequence (Q9Y6Y9 17-160 limits assumed): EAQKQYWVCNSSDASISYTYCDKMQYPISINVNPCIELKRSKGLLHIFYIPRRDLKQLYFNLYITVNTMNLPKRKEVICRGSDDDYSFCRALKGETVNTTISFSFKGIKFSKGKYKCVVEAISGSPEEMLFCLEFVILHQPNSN
Text: (§4) The HEK293 cell line was chosen for its null or low basal expression of the TLR genes. These cells enable efficient monitoring of TLR activity using ELISA analysis such as IL-8 titration or reporter-based systems that monitor TLR-induced NF-κB activation. HEK-TLR2 cells (Invivogen, Toulouse, France) are engineered HEK293 cells stably transfected with multiple genes from the TLR2 pathway that include TLR2 and genes participating in the recognition or involved in the signaling cascade. These cells secrete IL-8 after TLR2 stimulation. The experiments were performed according to manufacturers' instructions. Briefly, 2×10^4 cells/well (200 ul RPMI) are incubated at 37° C. during 3 days (5% CO2). The medium is removed, and 90 ul RPMi+5% FCS is added to the wells Then the agonists and controls are added (10 ul/well). The cells return to the incubator for 24 hours. The supernatants are collected and the IL-8 ELISA is performed according to manufacturer's instructions
HEK-MD2-TLR4-CD14 are highly sensitive to LPS. They were obtained by stable transfection of HEK293 cells with the TLR4, MD2 and CD14 genes and an NF-κB-inducible reporter system. They secrete IL-8. We used the same experimental procedure as for the other HEK cell lines described above.

TLR2 and CD14 = target: T2, TLR2 and CD14 (Homo sapiens, UniProt O60603); assay: HEK-TLR2-CD14 IL-8 secretion; format: cell-based; conditions: 24 h
T2 construct: expressed in transfected cells; host or cells: HEK (HEK-TLR2-CD14 cell line)
T2 sequence (O60603 21-784): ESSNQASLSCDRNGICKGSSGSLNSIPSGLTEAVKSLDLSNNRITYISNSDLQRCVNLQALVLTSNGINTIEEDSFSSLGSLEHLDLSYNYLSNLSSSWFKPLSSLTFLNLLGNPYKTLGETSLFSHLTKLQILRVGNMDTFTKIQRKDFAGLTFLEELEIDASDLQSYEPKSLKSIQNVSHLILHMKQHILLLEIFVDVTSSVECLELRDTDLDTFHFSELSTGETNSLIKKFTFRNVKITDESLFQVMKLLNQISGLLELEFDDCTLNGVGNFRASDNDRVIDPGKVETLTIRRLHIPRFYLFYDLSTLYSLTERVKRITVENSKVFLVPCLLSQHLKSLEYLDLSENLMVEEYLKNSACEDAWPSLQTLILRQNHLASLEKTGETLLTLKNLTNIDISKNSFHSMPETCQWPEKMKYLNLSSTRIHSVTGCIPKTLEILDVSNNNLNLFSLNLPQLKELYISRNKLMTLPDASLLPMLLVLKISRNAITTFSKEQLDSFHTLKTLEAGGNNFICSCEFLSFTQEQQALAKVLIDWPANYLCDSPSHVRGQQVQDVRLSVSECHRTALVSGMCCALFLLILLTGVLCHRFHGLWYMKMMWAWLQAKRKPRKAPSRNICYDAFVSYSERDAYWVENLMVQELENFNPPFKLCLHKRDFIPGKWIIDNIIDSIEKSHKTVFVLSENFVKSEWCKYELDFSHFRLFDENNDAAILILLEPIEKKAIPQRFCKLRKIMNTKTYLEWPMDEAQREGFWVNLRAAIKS
Text: as §4, with “manufacturer's instructions These preliminary results were confirmed in another cell line expressing concomitantly TLR2 and CD14. The procedure used is similar to the one described just above.” for “manufacturer's instructions”

TLR2 = target: T3, TLR2 (Homo sapiens, UniProt O60603); assay: HEK-TLR2 IL-8 secretion; format: cell-based; conditions: 24 h
T3 construct: host or cells: HEK293
T3 sequence (O60603 21-784): as above
Text: as §4

Compound: O=C(O)c1cc(=O)c2c(OCC(O)COc3cccc4oc(C(=O)O)cc(=O)c34)cccc2o1 [SCG, reference compound]
- pIC50 (rat mast cells; read-out: IC50, mean of the reference (5 different tests)): 5.07

Compound: CCCCCCCCCCCC(=O)O[C@H](CCCCCCCCCCC)CC(=O)NC1C(OCC2OC(OCCO)C(NC(=O)C[C@H](O)CCCCCCCCCCC)C(O)C2O)OC(CO)C(OP(=O)(O)O)C1O (stereo partly drawn) [compound 32, 2-Hydroxyethyl-2-Deoxy-6-O-[2-deoxy-4-O-(dihydroxyphosphoryl)-2-[(R)-3-dodecanoyloxytetradecanoylamino]-β-D-glucopyranosyl]-2-[(R)-3-hydroxytetradecanoylamino]-α-D-glucopyranoside]
- TNF-α ([1]; 0.2 μg/ml): 5.5 pg/mL
- TNF-α ([1]; 2 μg/ml): 7.8 pg/mL
- TNF-α ([1]; 20 μg/ml): 251 pg/mL
- TNF-α induction (in words) [1]: induced high levels of TNF-α

Compound: CCCCCCCCCCCC(=O)O[C@H](CCCCCCCCCCC)CC(=O)NC1C(OCC2OC(OCCCCCCN)C(NC(=O)C[C@H](O)CCCCCCCCCCC)C(O)C2O)OC(CO)C(OP(=O)(O)O)C1O (stereo partly drawn) [compound 26, 6-Aminohexyl-2-deoxy-6-O-[2-deoxy-4-O-(dihydroxyphosphoryl)-2-[(R)-3-dodecanoyloxytetradecanoylamino]-β-D-glucopyranosyl]-2-[(R)-3-hydroxytetradecanoylamino]-β-D-glucopyranoside]
- TNF-α ([1]; 0.2 μg/ml): 29.3 pg/mL
- TNF-α ([1]; 2 μg/ml): 1264 pg/mL
- TNF-α ([1]; 20 μg/ml): 7016 pg/mL
- TNF-α induction (in words) [1]: induced high levels of TNF-α
- IL6 ([2]; 1 μg/ml): 269.0 pg/mL
- IL6 ([2]; 5 μg/ml): 1923.2 pg/mL
- IL6 ([2]; 20 μg/ml): 8349.3 pg/mL
- IL-6 secretion (in words) ([2]; 1, 5, 20 μg/ml): able to induce IL-6 secretion

Compound: CCCCCCCCCCCC(=O)O[C@H](CCCCCCCCCCC)CC(=O)N[C@H]1[C@H](OC[C@H]2O[C@H](OCC(=O)O)[C@H](NC(=O)C[C@H](O)CCCCCCCCCCC)[C@@H](O)[C@@H]2O)O[C@H](CO)[C@@H](OP(=O)(O)O)[C@@H]1O [compound 35c, 2-Carboxymethyl-2-Deoxy-6-O-[2-deoxy-4-O-(dihydroxyphosphoryl)-2-[(R)-3-dodecanoyloxytetradecanoylamino]-β-D-glucopyranosyl]-2-[(R)-3-hydroxytetradecanoylamino]-α-D-glucopyranoside]
- TNF-α ([1]; 0.2 μg/ml): 48 pg/mL
- TNF-α ([1]; 2 μg/ml): 502 pg/mL
- TNF-α ([1]; 20 μg/ml): 591 pg/mL
- pIC50 (rat mast cells; read-out: IC50): 6.49

Compound: CCCCCCCCCCCCCCO[C@@H]1O[C@H](CO[C@@H]2O[C@H](CO)[C@@H](OP(=O)(O)O)[C@H](O)[C@H]2NC(=O)C[C@@H](CCCCCCCCCCC)OC(=O)CCCCCCCCCCC)[C@@H](O)[C@H](O)[C@H]1NC(=O)C[C@H](O)CCCCCCCCCCC [compound 41c, Tetradecyl-2-Deoxy-6-O-[2-deoxy-4-O-(dihydroxyphosphoryl)-2-[(R)-3-dodecanoyloxytetradecanoylamino]-β-D-glucopyranosyl]-2-[(R)-3-hydroxytetradecanoylamino]-β-D-glucopyranoside]
- TNF-α ([1]; 0.2 μg/ml): 570 pg/mL
- TNF-α ([1]; 2 μg/ml): 6036 pg/mL
- TNF-α ([1]; 20 μg/ml): 9769 pg/mL
- TNF-α induction (in words) [1]: induced high levels of TNF-α

Compound: PAM3CSK4 [reference compound]
- Optical density read at 625 nm, mean of duplicates ([3]; 1 ng/ml): 0.48 OD
- Optical density read at 625 nm, mean of duplicates ([3]; 4 ng/ml): 0.85 OD
- Optical density read at 625 nm, mean of duplicates ([3]; 12 ng/ml): 1.11 OD
- Optical density read at 625 nm, mean of duplicates ([3]; 37 ng/ml): 1.22 OD
- Optical density read at 625 nm, mean of duplicates ([3]; 111 ng/ml): 1.30 OD
- Optical density read at 625 nm, mean of duplicates ([3]; 333 ng/ml): 1.38 OD
- Optical density read at 625 nm, mean of duplicates ([3]; 1000 ng/ml): 1.35 OD
- IL-8 secretion, mean (TLR4; 1 ng/ml): 1.75 pg/mL
- IL-8 secretion, mean (TLR4; 4 ng/ml): 1.78 pg/mL
- IL-8 secretion, mean (TLR4; 12 ng/ml): 1.76 pg/mL
- IL-8 secretion, mean (TLR4; 37 ng/ml): 1.72 pg/mL
- IL-8 secretion, mean (TLR4; 111 ng/ml): 1.83 pg/mL
- IL-8 secretion, mean (TLR4; 333 ng/ml): 1.87 pg/mL
- IL-8 secretion, mean (TLR4; 1000 ng/ml): 2.17 pg/mL
- IL-8 secretion, mean (TLR2 and CD14; 1 ng/ml): 1.33 pg/mL
- IL-8 secretion, mean (TLR2 and CD14; 4 ng/ml): 2.55 pg/mL
- IL-8 secretion, mean (TLR2 and CD14; 12 ng/ml): 6.78 pg/mL
- IL-8 secretion, mean (TLR2 and CD14; 37 ng/ml): 15.90 pg/mL
- IL-8 secretion, mean (TLR2 and CD14; 111 ng/ml): 22.64 pg/mL
- IL-8 secretion, mean (TLR2 and CD14; 333 ng/ml): 33.30 pg/mL
- IL-8 secretion, mean (TLR2 and CD14; 1000 ng/ml): 39.04 pg/mL
- IL-8 secretion, mean (TLR2; 1 ng/ml): 1.84 pg/mL
- IL-8 secretion, mean (TLR2; 4 ng/ml): 3.89 pg/mL
- IL-8 secretion, mean (TLR2; 12 ng/ml): 9.12 pg/mL
- IL-8 secretion, mean (TLR2; 37 ng/ml): 18.33 pg/mL
- IL-8 secretion, mean (TLR2; 111 ng/ml): 23.93 pg/mL
- IL-8 secretion, mean (TLR2; 333 ng/ml): 28.24 pg/mL
- IL-8 secretion, mean (TLR2; 1000 ng/ml): 32.94 pg/mL
